# Reference: US9238631B2, “Radiolabeled amino acids for diagnostic imaging” (PIRAMAL IMAGING SA, priority 2011, dated 2016)
# Legend:
# H460 cells = experiment: Retention of radioactivity in H460 cells (efflux); assay type: cell-based, human; details: 30 minute efflux period after 30 minutes loading
# Method: The retention of radioactivity in tumor cells was examined. Therefore. H460 cells were loaded with 0.25 MBq of the respective tracer for 30 minutes in PBS buffer, containing 0.1% BSA. After this uptake, the buffer was removed and the cells were washed with PBS. The cells were then reincubated with new PBS buffer, without radioactivity for up to 30 minutes. The release of activity into the supernatant as well as the retention of activity inside the cells was examined. It was discovered, that only a limited amount of activity was released into the supernatant during the 30 minute efflux period. More than 80% of the activity were retained inside the tumor cells during the 30 minute incubation under these efflux conditions.
# In addition, the retention of radioactivity in tumor cells was examined. Therefore. H460 cells were loaded with 0.25 MBq of [^18F]-41 for 30 minutes in PBS buffer, containing 0.1% BSA. After this uptake, the buffer was removed and the cells were washed with PBS. The cells were then reincubated with new PBS buffer without radioactivity for 30 min. The release of activity into the supernatant as well as the retention of activity inside the cells was determined. It was discovered, that only a limited amount of activity was released into the supernatant during the 30 minute efflux period. […]
# NCI-H460 tumor [1] = experiment: In vivo biodistribution in NCI-H460 tumor bearing mice
# In short: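 Biodistribution of 18F-labeled compounds was assessed in female NMRI (nu/nu) mice bearing NCI-H460 tumors, established by inoculating 5×10^6 cells 8 to 10 days beforehand. Each mouse received 185 kBq of the fluorinated tracer; at least n=3 animals per time point were sacrificed, organs excised, and radioactivity quantified with a γ-counter.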
# NCI-H460 tumor [2] = experiment: PET imaging in NCI-H460 tumor bearing nude-rats; assay type: in vivo; details: PET ROI analysis, 1 h p.i.
# In short: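 NCI-H460 cells were inoculated into the right flank of nude rats (RH-Foxn1 nu/nu) 8 to 10 days before imaging. PET images were acquired for 10 minutes at 60 min after injection of approximately 10 MBq tracer. Tumor, liver and kidney activity was derived by ROI analysis as %ID/g.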
# [3] = system: NCI-H460 (human NSCLC) cells; experiment: Time-dependent uptake and blocking of [^18F]-41 in NCI-H460 cells; assay type: cell-based; details: 0.25 MBq, 60 min incubation, approx. 100.000 cells
# Method: NCI-H460 (human NSCLC) cells, grown adherently in 48 well plates were used for these experiments. Approximately 100.000 cells were incubated in PBS-buffer containing 0.1% BSA with 0.25 MBq [^18F]-41 for up to 60 minutes. A time-dependent uptake was observed during the 60 min incubation period. Approximately 13% of applied dose was taken up by the cells during the 60 min incubation period (FIG. 6). For the blocking study [^18F]-41 was co-incubated with 1 mM 41 for 30 minutes. After this time, the cell bound radioactivity was determined.
# reactive lymph nodes = experiment: PET uptake in inflammatory lesions (streptozotocin-induced reactive lymph nodes); assay type: in vivo, mice; details: dynamic PET 1 h, 3 days after streptozotocin
# Method: To test the specificity of compounds from the present invention, compound [^18F]-41 was examined in an animal model of reactive lymph nodes in comparison to the clinically commonly used PET tracer FDG. Therefore, female immunocompetent NMRI mice (10 weeks old) were injected with streptozotocin (500 μg/40 μL PBS) in the right hind limb to induce an inflammatory reaction in the right popliteal and additional lymph nodes. PET imaging studies were performed 3 days after Streptozotocin injection. PET images were acquired dynamically for 1 h after injection of approximately 5-10 MBq. After the imaging study, region-of-interest (ROI) analysis was performed in the popliteal, inguinal and iliacal lymph nodes. At least 3 animals were examined per tracer.
smiles,measurement,setting,value
"N[C@@H](CCC(Cc1ccc(OC[18F])cc1)C(=O)O)C(=O)O (stereo partly drawn) [[^18F]-41, (2S)-2-amino-5-[4-(fluoromethoxy)benzyl]hexanedioic acid]",activity retained inside the tumor cells,H460 cells,More than 80%
same,Kidney (% ID/g at 1 h p.i.),NCI-H460 tumor [1]; 1 h p.i.,3.1 ± 0.4 % ID/g
same,Liver (% ID/g at 1 h p.i.),NCI-H460 tumor [1]; 1 h p.i.,0.3 ± 0.1 % ID/g
same,Pancreas (% ID/g at 1 h p.i.),NCI-H460 tumor [1]; 1 h p.i.,1.0 ± 0.5 % ID/g
same,Tumor (% ID/g at 1 h p.i.),NCI-H460 tumor [1]; 1 h p.i.,6.8 ± 1.3 % ID/g
same,Urine (% ID at 1 h p.i.),NCI-H460 tumor [1]; 1 h p.i.,69.3 ± 14.5 % ID
same,T/Blood,NCI-H460 tumor [1]; 1 h post injection,26.3
same,T/Muscle,NCI-H460 tumor [1]; 1 h post injection,90.6
same,tumor uptake and retention (summary statement),"NCI-H460 tumor [1]; mouse, in vivo",high tumor uptake and retention
same,Kidney (% ID/g at 1 h p.i.),NCI-H460 tumor [2],0.5 % ID/g
same,Liver (% ID/g at 1 h p.i.),NCI-H460 tumor [2],0.4 % ID/g
same,Tumor (Max % ID/g at 1 h p.i.),NCI-H460 tumor [2],3.7 % ID/g
same,Tumor (Mean % ID/g at 1 h p.i.),NCI-H460 tumor [2],1.6 % ID/g
same,uptake of applied dose by the cells,[3],Approximately 13 % of applied dose
same,initial uptake in the inflammatory lesions,reactive lymph nodes,reduced compared to FDG
same,time-course of activity in the reactive lymph nodes,reactive lymph nodes,wash-out of radioactivity
